# Molecular target: T1, Tyrosine-protein kinase receptor UFO (Homo sapiens, UniProt P30530)
# T1 sequence (P30530 whole entry): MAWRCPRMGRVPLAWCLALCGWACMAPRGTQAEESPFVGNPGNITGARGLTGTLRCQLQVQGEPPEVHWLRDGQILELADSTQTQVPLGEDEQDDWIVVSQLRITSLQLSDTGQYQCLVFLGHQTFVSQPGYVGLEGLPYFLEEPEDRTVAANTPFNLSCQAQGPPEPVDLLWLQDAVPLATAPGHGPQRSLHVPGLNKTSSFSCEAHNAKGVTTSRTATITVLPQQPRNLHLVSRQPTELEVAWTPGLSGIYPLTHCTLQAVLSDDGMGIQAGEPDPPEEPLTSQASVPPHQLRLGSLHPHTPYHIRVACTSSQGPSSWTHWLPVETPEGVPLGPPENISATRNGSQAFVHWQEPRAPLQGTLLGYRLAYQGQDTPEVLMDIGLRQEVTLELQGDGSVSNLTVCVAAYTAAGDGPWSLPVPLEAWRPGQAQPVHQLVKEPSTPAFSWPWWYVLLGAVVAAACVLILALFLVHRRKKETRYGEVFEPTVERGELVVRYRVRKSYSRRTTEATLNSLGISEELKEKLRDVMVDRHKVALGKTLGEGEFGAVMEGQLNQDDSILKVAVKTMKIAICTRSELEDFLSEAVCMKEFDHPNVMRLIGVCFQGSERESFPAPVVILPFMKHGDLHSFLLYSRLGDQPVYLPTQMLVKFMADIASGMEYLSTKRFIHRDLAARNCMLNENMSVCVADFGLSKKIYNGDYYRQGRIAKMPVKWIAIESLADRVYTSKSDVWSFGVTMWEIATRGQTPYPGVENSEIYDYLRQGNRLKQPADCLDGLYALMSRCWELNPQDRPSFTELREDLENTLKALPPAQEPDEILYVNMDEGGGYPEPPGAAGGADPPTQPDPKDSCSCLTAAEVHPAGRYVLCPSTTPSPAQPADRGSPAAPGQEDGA
# Assay: Inhibition of AXL (unknown origin)
compound,measurement,value
COc1cc2ncnc(Oc3ccc(NC(=O)c4c5n(n(-c6ccccc6)c4=O)CCCC5)cc3)c2cc1OC,IC50,44 nM

# From BindingDB's records for PubMed 38714043 (Sichuan University)
